The source made the active and inactive calls. No cut-off for these calls is given here.
Tests used:
Format in all cases: cell-based
Settings in all cases: Cardiac atrium
Pelophylax lessonae [1] = assay: Activity at L-type calcium channel in frog atrial myocytes assessed as increase in Sr2+ current
Pelophylax lessonae [2] = assay: Inhibition of PP2A in frog atrial myocytes by microscystin assay
Pelophylax lessonae [3] = assay: Inhibition of NOS2 in frog atrial myocytes
Pelophylax lessonae [4] = assay: Decrease in cellular cGMP level in frog atrial myocytes at 4 uM by immunoassay; parameters: scale not given: the % may be the effect or the level left

SMILES: Cc1cc(O)c2c(=O)c3c(O)cc(O)c4c5c(O)cc(O)c6c(=O)c7c(O)cc(C)c8c1c2c(c34)c(c78)c65
- Activity (Pelophylax lessonae [1]): Dose-dependent effect
- Activity (Pelophylax lessonae [2]): inactive
- Activity (Pelophylax lessonae [3]): inactive
- Activity (Pelophylax lessonae [4]): 69%

From ChEMBL document CHEMBL1142100, “Hypericin activates L-type Ca2+ channels in cardiac myocytes” (J Nat Prod, 2007)
